Experiments:
MCF7 cells [1] = assay: SRB cell viability assay in MCF7 cells; type: cell-based; details: Homo sapiens, 72 h
Protocol: (§1) Cell viability by the sulforhodamine B (SRB) assay was used to assess cell growth and cytotoxicity of test compounds [29]. Cells were seeded at densities of 3,500 to 5,000 cells per well in 96 well plates overnight and pre-treated for 1 h with ABC transporter modulators: 10 μM fumitremorgin C (FTC; in MCF7MX and MCF7 cells), or 0.3 μM of zosuquidar (in 3T3 and 3T3-MDR1). Cells were then treated with test compounds for 72 h, at 37°C. After drug treatment, cells were fixed by addition of 50% trichloroacetic acid (TCA), and the plates washed and dried to allow staining with 0.4% solution of sulforhodamine B (Sigma) in 1% acetic acid for 30 minutes. Excess dye was removed upon washing with 1% acetic acid. Plates were dried and bound protein was solubilised upon addition of 150 μL of 10 mM Tris base buffer. Absorbance was measured at 540 nm using Thermo Multiskan-Ex plate reader. Cell viability versus compound concentration curves were plotted as a percentage of control cells. The concentration of drug that gave 50% inhibition in cell growth (GI50) was extrapolated from these curves using the sigmoid curve fit with variable slope in Prism (GraphPad Prism version 5.01, GraphPad Software, San Diego California USA). Three to six replicate wells were used for each drug concentration and experiments were carried out on three separate occasions for each compound.

MCF7MX cells [2] = assay: SRB cell viability assay in MCF7MX cells (ABCG2 overexpressing); type: cell-based, human; details: for fold increase in GI50 in the ABCG2 overexpressing cell line: GI50 MCF7MX over GI50 MCF7, without FTC; for GI50: Homo sapiens, MCF7/MX, 72 h, SRB
Protocol: as §1

3T3 cells [3] = assay: SRB cell viability assay in 3T3 cells; type: cell-based; details: Mus musculus, NIH3T3, 72 h
Protocol: as §1

3T3-MDR1 cells [4] = assay: SRB cell viability assay in 3T3-MDR1 cells (ABCB1 expressing); type: cell-based; details: GI50 3T3-MDR1 over GI50 3T3, without zosuquidar
Protocol: as §1

ABCB1 (MDR1) = assay: as above; type: cell-based; details: mouse, 3T3-MDR1 cells (ABCB1 expressing), 72 h, SRB
Protocol: as §1

Caco2 transwell assay = type: in vitro ADME, human; details: human; for efflux ratio at 120 min: Caco-2, no inhibitor, 10 μM cyanoquinoline or 50 μM vinblastine, read-out: efflux ratio (Papp B-A / Papp A-B)
Protocol: The caco2 transwell assay was performed to assess permeability. Cells were seeded at a density of 60,000 cells per well in 24 well transwell plates (Millipore, Billerica, Massachutsetts, USA), and maintained in DMEM supplemented with […] glucose (20% FBS, 1% penicillin/streptomycin, 1% glutamine) for 21 days at 37°C in 5% CO2. After 21 days the cells differentiate into enterocytes and express all three MDR proteins, ABCB1 and ABCG2 at the apical side and ABCC1 on the basal side. On day 21, cells were washed three times with Hank's Balanced Salt Solution (HBSS) (Fisher scientific, Loughborough, UK) and the trans-epithelial electric resistance (TERR) was measured using an Epithelial Voltohmmeter (EVOM) (World Precision Instruments, Sarasota, USA); only transwells with TERR of 400 Ω/cm^2 or above were used for the experiment. Cells were treated either at the apical (n = 3) or basal (n = 3) side of the transwell by addition of 10 μM of cyanoquinoline compound or 50 μM vinblastine prepared in a volume of 400 μL HBSS (compound added to apical well) or 800 μL of HBSS (added to basal well). When transport inhibitors FTC (10 μM) or zosuquidar (0.3 μM) were used, they were added to both the apical and basal wells 1 h prior to drug treatment. After 1 h pre-treatment the medium was removed and cells were treated with the compounds prepared in HBSS containing FTC or Zosuquidar.
Plates were incubated in shaker incubator at 37°C and 60 rpm for 120 min. After incubation, 200 μL aliquots from the apical and the basal wells were collected and analysed using high performance liquid chromatography (HPLC). Samples were run on a Millipore Waters HPLC system which included a 717 plus autosampler and 2487 dual wavelength absorbance detector system. The stationary phase comprised of a Phenomenex Luna C18 reverse phase column (150 X 4.6 mm; 5 μm particle size). The mobile phase comprised water (0.1% TFA) and acetonitrile (0.1% TFA) (80:20 v/v) at a flow rate of 1 mL/min for all compounds except vinblastine. For vinblastine, the stationary phase comprised a Supelcosil LC-ABZ reverse phase column (5 × 4.6 mm; 5 μm particle size). The mobile phase comprised water (0.1% formic acid) and methanol (90:10 to 10:90 v/v gradient over 20 min). Peak areas corresponding to the compounds of interest were recorded. Using standard curves the areas under the curve were converted into concentrations of compound. The permeability coefficient (Papp) was calculated using the following equation [30]: Papp = (dQ/dt)/A C0, where A is the surface area of the transwell membrane in cm^2 (= 0.33 cm^2), C0 is the drug concentration in the donor chamber at time t = 0 and dQ/dt is the rate of transfer of the compound to the receiver chamber, determined from the slope of the graph concentration (dQ) versus time (dt). Papp values corresponding to absorption and secretion were assessed and used to calculate efflux ratio. Efflux ratio =(Papp B−A)/(Papp A−B) Where Papp A-B = Papp absorption and Papp B-A = Papp secretion.
The integrity of the caco2 cell membrane was assessed for each well following the experiment by addition of a 100 μM solution of […] (Sigma) in HBSS to the apical side of the plate. The plates were placed in the shaker incubator for 1 h at 37°C and 60 rpm. Samples from the basal wells were transferred into a 96 well plate and the levels of […] were assessed by measuring with an excitation of 450 nm and an emission of 540 nm using the PerkinElmer Wallac 1420 counter.

3T3 cells [5] = assay: Cell uptake assay in 3T3 cells; type: cell-based; details: 1 h incubation with 0.22 MBq
Protocol: (§2) [^18F]FED6 and [^18F]FED20 were synthesised as previously reported. To increase specific radioactivity of [^18F]FED20, we modified the synthesis by decreasing the amount of alkyne precursor from 1 mg down to 0.5 mg. While this had the desired effect of increasing the specific activity from 7.3 GBq/μmol up to 52 GBq/μmol, the conversion of the alkyne to the triazole product dropped from > 95% down to 45%. Cells were seeded in 6 well plates and [^18F]FED6 (0.22 MBq) or [^18F]FED20 (0.55 MBq or 0.74 MBq) added to each well and incubated at 37°C for 1 h. Media were then removed and cells were washed twice with PBS. The cells were trypsinised and centrifuged for 3 minutes at 2000 rpm to obtain a pellet. The cell pellet was washed once with PBS and resuspended in 200 μL of RIPA buffer. Cell lysates were transferred to gamma counting tubes and the radioactivity in the pellet was measured on a Packard Cobra II gamma counter, (Perkin-Elmer, Waltham, Massachusetts, USA). Protein concentrations of samples were evaluated using Pierce® BCA Protein Assay Kit (Thermo Scientific, Waltham, Massachusetts, USA). Data were expressed as background- and decay-corrected counts per minute (CCPMA) per μg of cellular protein.

3T3-MDR1 cells [6] = assay: Cell uptake assay in 3T3-MDR1 cells; type: cell-based
Protocol: as §2

MCF7 cells [7] = assay: Cell uptake assay in MCF7 cells; type: cell-based, human; details: 1 h incubation with 0.22 MBq
Protocol: as §2

MCF7MX cells [8] = assay: Cell uptake assay in MCF7MX cells; type: cell-based, human
Protocol: SiRNA transfections were carried out using ON TARGET plus-SMARTpool siRNA or non-targeting siRNA (Dharmacon, Lafayette, Louisianna, USA); ABCG2, L-009924-00-0005 and scramble (non-targeting) D-001810-10-05. Lipofectamine RNAiMAX (Invitrogen UK) was used as the transfection reagent and was prepared as indicated on the product protocol. Cells were seeded in black 96 well plates in antibiotic free media. On the day of transfection, siRNA and Lipofectamine were separately diluted in opti-MEM media, mixed in a 1 to 1 ratio and incubated at room temperature for 20 min; the siRNA-Lipofectamine complexes were then added to the cells. Fresh media containing 1% penicillin streptomycin was added to the cells after 24 h followed by Hoechst fluorescent assays at 72 h.
as §2

H358 cells = assay: Cell uptake assay in H358 cells; type: cell-based; details: 1 h incubation with 0.22 MBq
Protocol: as §2

[9] = 1 h pre-treatment with 10 μM FTC
[10] = pre-treatment with 0.3 μM zosuquidar
[11] = with zosuquidar 0.3 μM (1 h pre-treatment), pre-treatment with 0.3 μM zosuquidar

Structure (SMILES)	GI50 (MCF7 cells [1]; [9]) [µM]	GI50 (MCF7 cells [1]; without FTC) [µM]	fold increase in GI50 in the ABCG2 overexpressing cell line (MCF7MX cells [2]) [fold]	GI50 (MCF7MX cells [2]; [9]) [µM]	GI50 (MCF7MX cells [2]; without FTC) [µM]	GI50 (3T3 cells [3]; [10]) [µM]	GI50 (3T3 cells [3]; without zosuquidar) [µM]	fold increase in GI50 in the ABCB1 overexpressing cell line (3T3-MDR1 cells [4]) [fold]	GI50 at 72 h (ABCB1 (MDR1); [11]) [µM]	GI50 at 72 h (ABCB1 (MDR1); without zosuquidar) [µM]	efflux ratio at 120 min (Caco2 transwell assay)	further results
CCOc1cc2ncc(C#N)c(Nc3ccc(F)c(Cl)c3)c2cc1NC(=O)/C=C/CN(C)C [EKB-569, pelitinib, reference compound]	2.55 ± 0.04	2.61 ± 0.07	1.7	1.54 ± 0.06	4.28 ± 0.23	1.15 ± 0.6	1.06 ± 0.6	5.4	2.7 ± 0.8	5.75 ± 0.7	> 3	–
CCOc1cc2ncc(C#N)c(Nc3ccc(F)c(Cl)c3)c2cc1NC(=O)/C=C/CNC [FED2]	14.8 ± 8.54	14.9 ± 8.6	3.2	10.3 ± 5.95	27.6 ± 15.9	4.5 ± 0.8	7 ± 1.2	5.1	5.9 ± 0.6	36 ± 1.1	> 3	–
CCOc1cc2ncc(C#N)c(Nc3ccc(F)c(Cl)c3)c2cc1N [FED14]	11.2 ± 1.11	11.4 ± 1.36	–	10.1 ± 0.73	6.53 ± 0.34	14.8 ± 0.7	14.8 ± 0.7	–	12.2 ± 0.6	8.7 ± 0.7	< 1	–
O=C1c2c(O)ccc(O)c2C(=O)c2c(NCCNCCO)ccc(NCCNCCO)c21 [Mitoxantrone, reference compound]	6.62 ± 3.82	10.7 ± 6.18	–	22.8 ± 13.1	2500 ± 1440	197 ± 0.6	37 ± 0.8	–	57 ± 1	141 ± 1	–	–
CC[C@]1(O)C[C@@H]2CN(CCc3c([nH]c4ccccc34)[C@@](C(=O)OC)(c3cc4c(cc3OC)N(C)[C@H]3[C@@](O)(C(=O)OC)[C@H](OC(C)=O)[C@]5(CC)C=CCN6CC[C@]43[C@@H]65)C2)C1 [Vinblastine, reference compound]	0.00536 ± 0.00063	0.00512 ± 0.00074	–	0.00266 ± 0.00066	0.00208 ± 0.00041	0.0015 ± 0.0012	0.0018 ± 0.001	–	0.0011 ± 0.0011	0.219 ± 0.0008	–	efflux ratio at 120 min, 50 μM (Caco2 transwell assay; Caco-2, pre-treatment with zosuquidar, read-out: efflux (permeability) ratio after pre-treatment with zosuquidar): 1.7
CCOc1cc2ncc(C#N)c(Nc3ccc(F)c(Cl)c3)c2cc1NC(=O)/C=C/CNCc1cn(CC[18F])nn1 [[^18F]FED6, [^18F](2E)-N-{4-[(3-chloro-4-fluorophenyl)amino]-3-cyano-7-ethoxyquinolin-6-yl}-4-({[1-(2-fluoroethyl)-1H-1,2,3-triazol-4-yl]methyl}amino)-but-2-enamide]	–	–	–	–	–	–	–	–	–	–	–	protein normalised uptake in 3T3 cells (3T3 cells [5]): 22 CCPMA/μg of protein; fold increase of uptake in 3T3-MDR1 cells following zosuquidar pre-treatment (3T3-MDR1 cells [6]; 0.3 μM zosuquidar for 1 h): 19 fold; protein normalised uptake in 3T3-MDR1 cells (3T3-MDR1 cells [6]; 1 h incubation with 0.22 MBq): 0.7 CCPMA/μg of protein; protein normalised uptake in MCF7 cells (MCF7 cells [7]): 81 CCPMA/μg of protein; uptake in MCF7MX cells following ABCG2 siRNA (MCF7MX cells [8]; 25 nM ABCG2 siRNA 72 h, 1 h incubation with 0.22 MBq): 3.5 CCPMA/μg protein; uptake in scramble siRNA transfected MCF7MX cells (MCF7MX cells [8]; 25 nM scrambled siRNA 72 h, 1 h incubation with 0.22 MBq): 0.6 CCPMA/μg protein; fold increase of uptake in MCF7MX cells following FTC pre-treatment (MCF7MX cells [8]; 10 μM FTC for 1 h): 4 fold; uptake in MCF7MX cells following FTC pre-treatment (MCF7MX cells [8]; 10 μM FTC for 1 h, 1 h incubation with 0.22 MBq): 6 CCPMA/μg protein; uptake in MCF7MX cells following gefitinib pre-treatment (MCF7MX cells [8]; 10 μM gefitinib for 1 h, 1 h incubation with 0.22 MBq): 6.3 CCPMA/μg protein; protein normalised uptake in MCF7MX cells (MCF7MX cells [8]; 1 h incubation with 0.22 MBq): 7.7 CCPMA/μg of protein; protein normalised uptake in H358 cells (H358 cells): 86 CCPMA/μg of protein

Source: PMC4995014, “Identification of ABC Transporter Interaction of a Novel Cyanoquinoline Radiotracer and Implications for Tumour Imaging by Positron Emission Tomography” (PLoS ONE, 2016)
